Measurements as given in article PMC8151276, “An Integrated Approach toward NanoBRET Tracers for Analysis of GPCR Ligand Engagement” (Molecules, 2021).

Target: T1, HTR2B (Homo sapiens, UniProt P41595)
T1 construct: purchased Promega (in-house HiBiT-GPCR construct library, NanoBRET)
Assay: NanoBRET screen HiBiT-HTR2B in HEK293
Assay type: binding
Procedure: Each tracer candidate was screened across the entire library of HiBiT-GPCR constructs using NanoBRET as the detection modality. As depicted in Figure 4A, the specificity of interactions was evaluated through decrease in BRET due to competitive displacement of a bound tracer by excess parental compound. Each tracer was analyzed for binding to each HiBiT-GPCR fusion in the absence and in the presence of competing parental compound. Briefly, HEK293 cells were transfected with HiBiT-GPCR constructs diluted into promoterless DNA to reduce expression and maximize translocation to the cell surface. Each tracer candidate was then screened at concentrations of 1 μM and 0.1 μM across cells expressing these fusions. Cells were treated for 1.5 h with tracer either alone or in the presence of 20 μM competing parental compound (i.e., control). BRET was measured upon addition of purified LgBiT and subsequent complementation with HiBiT genetically fused to a GPCR. The specificity of interactions was assessed through a decrease in BRET signal due to competitive displacement of the bound tracer. To further gauge the robustness of these interactions, the fold response over the control (i.e., BRETtracer/BRETcontrol) was calculated. We chose a 1.5-fold response, which translates to ≥7-fold signal over noise as the minimal threshold required to score an interaction as positive.
HiBiT-GPCR DNA constructs were diluted in 10 mM Tris pH 8 to a final concentration of 0.01 μg/μL, arrayed in 96-well plates and stored at −20 °C. For transfection, HEK293 cells were suspended in Opti-MEM (without phenol red) supplemented with 2% fetal bovine serum (Seradigm) and 100 units/mL penicillin–streptomycin (Gibco) at a final concentration of 220,000 cells/mL and dispensed into white 96-well plates at 90 μL/well. Subsequent transfections and screens were carried using an Agilent Bravo Automated Liquid Handling Platform. First, the 96-well HiBiT DNA arrays were diluted 25-fold in Opti-MEM (without serum or phenol red) to a final concentration of 0.0004 μg/μL and 20 μL of the diluted DNAs were transferred into new 96-well plates. Next, promoterless carrier DNA (1 μg/μL) was diluted 25-fold (0.04 μg/μL) and then dispensed into the diluted arrays at 20 μL/well. Following brief mixing, Viafect transfection reagent (Promega) diluted 16-fold into Opti-MEM was dispensed into the plates at 40 μL/well. After mixing by pipetting, plates were incubated for 10 min on the pipetting station deck. The DNA-transfection reagent complexes were then added to plates containing cells. To facilitate the screen, 10 μL of DNA-transfection reagent complexes were added in duplicates to the top 4 and bottom 4 rows, resulting in two identical 48-well arrays per plate. Plates with transfected cells were incubated for 18–20 h at 37 °C/5% CO2. A screen of each tracer across the entire library using two different concentrations requires duplicate plates of transfected cells. Depending on the number of tracers being screened, transfections can be scaled up using the same ratios. The next day, for each tracer, four 20× screening solutions in tracer dilution buffer (Promega) were prepared: two duplicates at final concentration of 20 μM and two duplicates at a final concentration of 2 μM. […] The four resulting solutions were diluted 4-fold in Opti-MEM without serum or phenol red to generate 5× solutions (5 µM and 0.5 µM tracer +/− 100 μM competing compound). To screen the library, a BioTek MultiFlo FX liquid dispenser was used to dispense 22.5 µL of tracer solution to the top 4 rows and 22.5 µL tracer + competing compound solution to the 4 bottom rows. Plates were briefly mixed on an orbital shaker and incubated for 1.5 h at room temperature. […] Plates were briefly mixed on an orbital shaker and incubated for 15 min to allow complementation.

T1 sequence (P41595 whole entry): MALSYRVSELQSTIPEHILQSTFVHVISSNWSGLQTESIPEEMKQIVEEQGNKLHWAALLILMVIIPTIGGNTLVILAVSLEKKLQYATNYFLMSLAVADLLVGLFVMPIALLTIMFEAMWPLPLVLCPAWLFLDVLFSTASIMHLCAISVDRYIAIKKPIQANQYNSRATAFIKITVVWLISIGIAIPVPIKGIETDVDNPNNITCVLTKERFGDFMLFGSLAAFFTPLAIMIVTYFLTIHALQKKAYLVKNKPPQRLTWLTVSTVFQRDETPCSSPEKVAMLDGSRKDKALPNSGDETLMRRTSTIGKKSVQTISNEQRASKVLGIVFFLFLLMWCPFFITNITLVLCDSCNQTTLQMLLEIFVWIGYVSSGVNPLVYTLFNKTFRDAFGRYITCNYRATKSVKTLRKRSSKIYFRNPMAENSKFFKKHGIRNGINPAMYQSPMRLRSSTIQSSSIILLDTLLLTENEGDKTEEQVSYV

SMILES: CCOC(=O)c1cc(C#N)c(N2CCC(C(=O)NS(=O)(=O)Cc3ccccc3/C=C/C(=O)NCCNC(=O)CCc3ccc4n3[B-](F)(F)[N+]3=C(c5ccc[nH]5)C=CC3=C4)CC2)nc1C [AZD1283-1-NB590]
- NanoBRET Fold Response (HTR2B, 0.1μM): 1.31
- NanoBRET Fold Response (HTR2B, 1μM): 1.15

SMILES: N#CN/C(=N\CCNC(=O)c1ccc(N)cc1)NCCCOc1cccc(CN2CCCCC2)c1 [Aminopotentidine (unmodified)]
- NanoBRET Fold Response (HTR2B, other tracers/Aminopotentidine (unmodified), 0.1μM): 1.03
- NanoBRET Fold Response (HTR2B, other tracers/Aminopotentidine (unmodified), 1μM): 0.97

SMILES: N#CN=C(NCCCOc1cccc(CN2CCCCC2)c1)NCCNC(=O)CCOCCOCCOCCOCCNC(=O)CCc1ccc2n1[B-](F)(F)[N+]1=C(c3ccc[nH]3)C=CC1=C2 [Aminopotentidine-2-NB590]
- NanoBRET Fold Response (HTR2B, tracer 0.1μM): 0.90
- NanoBRET Fold Response (HTR2B, tracer 1μM): 0.91

SMILES: CN(C)CCC=C1c2ccccc2CCc2ccc(C(=O)NCCNC(=O)CCOCCOCCOCCOCCNC(=O)CCc3ccc4n3[B-](F)(F)[N+]3=C(c5ccc[nH]5)C=CC3=C4)cc21 [Amitriptyline-a-2-NB590]
- NanoBRET Fold Response (tracer at 0.1μM): 0.98
- NanoBRET Fold Response (tracer at 1μM): 1.09

SMILES: CN(C)CCC=C1c2ccccc2CCc2ccc(C(=O)NCCNC(=O)CCOCCOCCOCCOCCNC(=O)CCc3ccc4n3[B-](F)(F)[N+]3=C(c5ccc[nH]5)C=CC3=C4)cc21 [Amitriptyline-b-2-NB590]
- NanoBRET Fold Response (tracer at 0.1μM, listed as amitriptyline-b-2-NB590): 1.05
- NanoBRET Fold Response (tracer at 1μM, listed as amitriptyline-b-2-NB590): 0.74

SMILES: CN(CCC=C1c2ccccc2CCc2ccccc21)C(=O)CCOCCOCCOCCOCCNC(=O)CCc1ccc2n1[B-](F)(F)[N+]1=C(c3ccc[nH]3)C=CC1=C2 [Amitriptyline-e-2-NB590]
- NanoBRET Fold Response (tracer at 1μM): 1.02

SMILES: COc1ccc2c(n1)c(CCNC(C)=O)cn2CCNC(=O)CCc1ccc2n1[B-](F)(F)[N+]1=C(c3ccc[nH]3)C=CC1=C2 [Azamelatonin-1-NB590]
- NanoBRET Fold Response (0.1μM tracer): 0.98
- NanoBRET Fold Response (1μM tracer): 0.98

SMILES: COc1ccc2[nH]c(-c3ccc(CNC(=O)CCOCCOCCOCCOCCNC(=O)CCc4ccc5n4[B-](F)(F)[N+]4=C(c6ccc[nH]6)C=CC4=C5)cc3)c(CCNC(C)=O)c2n1 [AzomelatoninICO9-2-NB590]
- NanoBRET Fold Response (0.1μM tracer): 0.81
- NanoBRET Fold Response (1μM tracer): 1.08

SMILES: O=C(CCOCCOCCOCCOCCNC(=O)CCc1ccc2n1[B-](F)(F)[N+]1=C(c3ccc[nH]3)C=CC1=C2)NCCCN1CCN(C2=Nc3cc(Cl)ccc3Nc3ccccc32)CC1 [Clozapine-a-2-NB590]
- NanoBRET Fold Response (HTR2B, 0.1μM tracer): 1.08
- NanoBRET Fold Response (HTR2B, 1μM tracer): 1.14

SMILES: O=C(CCOCCOCCOCCOCCNC(=O)CCc1ccc2n1[B-](F)(F)[N+]1=C(c3ccc[nH]3)C=CC1=C2)NCCCN1CCN(C2=Nc3ccccc3Oc3ccc(Cl)cc32)CC1 [Loxapine-a-2-NB590]
- NanoBRET Fold Response (HTR2B, tracer 0.1μM): 1.04
- NanoBRET Fold Response (HTR2B, tracer 1μM): 1.25

SMILES: COc1ccccc1N1CCN(CCCCN2C(=O)c3ccc(CNC(=O)CCOCCOCCOCCOCCNC(=O)CCc4ccc5n4[B-](F)(F)[N+]4=C(c6ccc[nH]6)C=CC4=C5)cc3C2=O)CC1 [NAN-190-2-NB590]
- NanoBRET Fold Response (HTR2B, tracer 0.1μM): 0.92

SMILES: COc1ccccc1N1CCN(CCCCN2C(=O)c3ccc(CNC(=O)CCOCCNC(=O)c4ccc(CNC(=O)CCc5ccc6n5[B-](F)(F)[N+]5=C(c7ccc[nH]7)C=CC5=C6)cc4)cc3C2=O)CC1 [NAN-190-3-NB590]
- NanoBRET Fold Response (HTR2B, tracer 0.1μM): 0.92
- NanoBRET Fold Response (HTR2B, tracer 1μM): 0.80

SMILES: O=C(CCc1ccc2n1[B-](F)(F)[N+]1=C(c3ccc[nH]3)C=CC1=C2)NCc1ccc(C(=O)NCCOCCC(=O)N[C@@H]2CC[C@@]3(O)[C@H]4Cc5ccc(O)c6c5[C@@]3(CCN4CC3CC3)[C@H]2O6)cc1 [Naltrexone-3-NB590]
- NanoBRET Fold Response (HTR2B, tracer 0.1μM): 1.13
- NanoBRET Fold Response (HTR2B, tracer 1μM): 0.98

SMILES: Cc1cc2c(s1)Nc1ccccc1N=C2N1CCN(CCCNC(=O)CCOCCOCCOCCOCCNC(=O)CCc2ccc3n2[B-](F)(F)[N+]2=C(c4ccc[nH]4)C=CC2=C3)CC1 [Olanzapine-a-2-NB590]
- NanoBRET Fold Response (HTR2B, tracer 0.1μM): 1.12
- NanoBRET Fold Response (HTR2B, tracer 1μM): 1.36

SMILES: O=C(CCc1ccc2n1[B-](F)(F)[N+]1=C(c3ccc[nH]3)C=CC1=C2)NCc1ccc(C(=O)NCCOCCOCCNCC(O)COc2cccc3ccccc23)cc1 (centres unmarked) [Propranolol-3-NB590]
- NanoBRET Fold Response (HTR2B, 0.1μM): 1.13
- NanoBRET Fold Response (HTR2B, 1μM): 1.00

SMILES: O=C(CCc1ccc2n1[B-](F)(F)[N+]1=C(c3ccc[nH]3)C=CC1=C2)NCCOCCOCCNC(=O)OCCOCCN1CCN(C2=Nc3ccccc3Sc3ccccc32)CC1 [Quetiapine-a-2-NB590]
- NanoBRET Fold Response (HTR2B, tracer 0.1μM): 1.51
- NanoBRET Fold Response (HTR2B, tracer 1μM): 1.14

SMILES: Cc1nc2n(c(=O)c1CCN1CCC(c3noc4cc(F)ccc34)CC1)CCCC2OC(=O)NCCOCCOCCOCCOCCNC(=O)CCc1ccc2n1[B-](F)(F)[N+]1=C(c3ccc[nH]3)C=CC1=C2 (centres unmarked) [Risperidone-2-NB590]
- NanoBRET Fold Response (HTR2B, tracer 0.1μM): 1.03
- NanoBRET Fold Response (HTR2B, tracer 1μM): 1.32

SMILES: CC(C)N(CC[C@H](c1ccccc1)c1cc(CCNC(=O)CCOCCOCCOCCOCCNC(=O)CCc2ccc3n2[B-](F)(F)[N+]2=C(c4ccc[nH]4)C=CC2=C3)ccc1O)C(C)C [Tolterodine-2-NB590]
- NanoBRET Fold Response (HTR2B, tracer 0.1μM): 0.68
- NanoBRET Fold Response (HTR2B, tracer 1μM): 0.81

SMILES: CC(C)N(CC[C@H](c1ccccc1)c1cc(CCNC(=O)c2ccc(CNC(=O)CCc3ccc4n3[B-](F)(F)[N+]3=C(c5ccc[nH]5)C=CC3=C4)cc2)ccc1O)C(C)C [Tolterodine-BZ-NB590]
- NanoBRET Fold Response (HTR2B, tracer 0.1μM): 0.83
- NanoBRET Fold Response (HTR2B, tracer 1μM): 1.07

SMILES: CCCn1c(=O)c2[nH]c(-c3ccc(OCC(=O)NCCNC(=O)CCOCCNC(=O)c4ccc(CNC(=O)CCc5ccc6n5[B-](F)(F)[N+]5=C(c7ccc[nH]7)C=CC5=C6)cc4)cc3)nc2n(CCC)c1=O [XAC-3-NB590]
- NanoBRET Fold Response (HTR2B, tracer 0.1μM): 1.29
- NanoBRET Fold Response (HTR2B, tracer 1μM): 0.78
